Reference: US9434688B2, “Indole derivatives as selective androgen receptor modulators (SARMS)” (Janssen Pharmaceutica, NV, priority 2004, dated 2016)
“And” between values parts separate entries of the source, which are not always exact repeats. Equal values may be shown once.

Columns and labels:
androgen receptor [1] = biological target: T1, androgen receptor (Rattus norvegicus, UniProt P15207); assay: Androgen Receptor Binding Using Rat Ventral Prostate Cytosol; set-up: from tissue; host or cells: ventral prostate cytosol of castrated male Sprague Dawley or Wistar rats; settings: 3 µM
T1 sequence (P15207 1-902): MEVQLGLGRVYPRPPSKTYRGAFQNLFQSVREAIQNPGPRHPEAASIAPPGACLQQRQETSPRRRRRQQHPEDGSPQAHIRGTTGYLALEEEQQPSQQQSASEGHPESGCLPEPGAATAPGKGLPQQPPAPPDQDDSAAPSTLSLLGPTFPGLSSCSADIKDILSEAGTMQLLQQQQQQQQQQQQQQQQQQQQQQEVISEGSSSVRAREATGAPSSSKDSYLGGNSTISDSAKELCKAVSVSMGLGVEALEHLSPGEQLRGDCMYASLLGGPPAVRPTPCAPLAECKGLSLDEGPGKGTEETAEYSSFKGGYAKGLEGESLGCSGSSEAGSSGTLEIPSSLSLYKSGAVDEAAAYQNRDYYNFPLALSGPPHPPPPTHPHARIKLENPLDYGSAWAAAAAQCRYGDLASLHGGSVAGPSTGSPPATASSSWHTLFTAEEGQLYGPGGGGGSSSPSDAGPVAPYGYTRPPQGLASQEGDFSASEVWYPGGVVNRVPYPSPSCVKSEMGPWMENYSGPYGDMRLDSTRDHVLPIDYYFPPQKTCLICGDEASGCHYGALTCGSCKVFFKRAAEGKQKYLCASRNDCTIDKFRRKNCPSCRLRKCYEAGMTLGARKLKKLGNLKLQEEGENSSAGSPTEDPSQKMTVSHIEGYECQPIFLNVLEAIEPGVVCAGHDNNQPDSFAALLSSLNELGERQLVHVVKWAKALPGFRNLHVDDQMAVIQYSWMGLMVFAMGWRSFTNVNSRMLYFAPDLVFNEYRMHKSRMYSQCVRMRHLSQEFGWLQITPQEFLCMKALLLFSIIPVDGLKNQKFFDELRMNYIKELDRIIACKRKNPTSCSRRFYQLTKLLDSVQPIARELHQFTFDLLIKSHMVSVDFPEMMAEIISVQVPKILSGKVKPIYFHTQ

androgen receptor [2] = biological target: T1, androgen receptor; assay: COS-7 Whole-Cell Androgen Receptor Binding Assay, Adenovirus Transduction
Method: COS-7 cells were plated in 96-well plates at 20,000 cells per well, in a solution of DMEM/F12 (GIBCO) containing 10% (v/v) charcoal-treated fetal bovine serum (Hyclone) and lacking phenol red. The cells were then incubated overnight at 37° C. in 5% (v/v) humidified CO2.
Test compound solutions were prepared by diluting the test compound in 100% (v/v) DMSO, if necessary.
Next, 1 mL of DMEM/F12 lacking phenol red was pipetted into each of the wells of a 2-mL 96-well assay block. […] The wells were carefully mixed by pipette.
In a 15 mL or 50 mL sterile centrifuge tube, a dilution in DMEM/F12 of the adenovirus AdEasy+rAR at a moi of 1:50 per well was prepared.
The medium was removed from the 96-well plates by inversion and the plates dried very briefly, inverted, on a sterile towel. As soon as possible after medium removal, 40 μL of the diluted test compound was added to each well, in duplicate. […] The plates were then incubated for 48 hours at 37° C. in 5% (v/v) humidified CO2.
The medium was removed from the above incubated plates by inversion and dried. Each well was then washed with 0.35 mL of 1×PBS. The PBS was then removed from the plates by inversion and the plates dried.
To each well was then added 50 μL of 0.5% (v/v) Triton X-100 (Sigma) in 1×PBS and the plates placed on a rotary shaker for 5 min. The contents of each well were then transferred to an OptiPlate-96 (Packard) scintillation plate. To each well was then added 0.2 mL of Microscint-20 (Packard) and the wells counted on a TopCount (Packard).
Percent inhibition was determined by testing dilutions of the test compound (usually duplicates of 10 μM) in the binding assay. Counts per well were measured and percents of inhibition determined. […] Counts per well were measured and IC50s determined by linear regression.

Compound: CCSCC(O)c1cc2cc([N+](=O)[O-])c(C(F)(F)F)cc2[nH]1 (racemic) [compound 158]
- % Inhibition (androgen receptor [1]): 52%
- % Inhibition (androgen receptor [2]): 62% and 56%
